Source: ChEMBL document CHEMBL5247589, “Natural occurrence, bioactivity, and biosynthesis of triene-ansamycins” (Eur J Med Chem, 2022)
In brackets after ≈: the same amount, converted by molar mass.

Legend:
[1] = system: HepG2; assay: Antiproliferative activity against human HepG2 cells assessed as cell viability incubated for 48 hrs by Cell Counting Kit-8 assay; type: functional, cell-based; conditions: HepG2, 48 h
[2] = system: PC-3; assay: Antiproliferative activity against human PC3 cells assessed as cell viability incubated for 48 hrs by Cell Counting Kit-8 assay; type: functional, cell-based; conditions: PC-3, 48 h
[3] = system: PC-3; assay: Cytotoxicity against human PC-3 cells incubated for 48 hrs by CCK-8 assay; type: functional, cell-based; conditions: PC-3, 48 h
[4] = Antiproliferative activity against human U87 cells overexpressing miR-9 assessed as cell viability incubated for 48 hrs by Cell Counting Kit-8 assay; type: functional, cell-based, U-87MG ATCC; conditions: U-87 MG
[5] = system: HepG2; assay: Cytotoxicity against human HepG2 cells incubated for 48 hrs by CCK-8 assay; type: functional, cell-based; conditions: HepG2, 48 h
[6] = system: HL-60; assay: Antitumor activity against human HL60 cells assessed as cell growth incubated for 1 day by MTT assay; type: functional, cell-based; conditions: HL-60, 24 h
[7] = system: HL-60; assay: Induction of apoptosis in human HL-60 cells assessed as effective dose; type: functional; conditions: read-out: ED50 (the source's name)
[8] = Cytotoxicity against human WI-38 cells assessed as cell growth incubated for 1 day by MTT assay; type: toxicity, cell-based
[9] = system: Capan-2; assay: Antitumor activity against human Capan-2 cells incubated for 48 to 72 hrs by MTS Assay; type: functional, cell-based
[10] = system: PC-3; assay: Antitumor activity against human PC-3 cells incubated for 72 hrs by SRB calorimetric assay; type: functional, cell-based; conditions: PC-3, 72 h
[11] = system: BXPC-3; assay: Antitumor activity against human BXPC-3 cells incubated for 48 to 72 hrs by MTS Assay; type: functional, cell-based
[12] = system: PANC-1; assay: Antitumor activity against human PANC-1 cells incubated for 48 to 72 hrs by MTS Assay; type: functional, cell-based
[13] = system: HepG2; assay: Antitumor activity against human HepG2 cells incubated for 72 hrs by SRB calorimetric assay; type: functional, cell-based; conditions: HepG2, 72 h
[14] = Inhibition of bovine brain FTase; set-up: species or system Bos taurus
[15] = system: MCF7; assay: Antitumor activity against human MCF7 cells incubated for 72 hrs by MTT assay; type: functional, cell-based; conditions: MCF7, 72 h
[16] = system: A549; assay: Antitumor activity against human A549 cells incubated for 72 hrs by MTT assay; type: functional, cell-based; conditions: A549, 72 h
[17] = system: K562; assay: Antitumor activity against human K562 cells incubated for 24 hrs by CCK-8 assay; type: functional, cell-based; conditions: K562, 24 h
[18] = system: Cyberlindnera jadinii; assay: Antifungal activity against Cyberlindnera jadinii IFO 0396 assessed as inhibition of fungal growth incubated for 72 hrs by broth dilution method; type: functional; conditions: Williopsis jadinii
[19] = system: Rhizopus delemar; assay: Antifungal activity against Rhizopus delemar IAM 6015 assessed as inhibition of fungal growth incubated for 72 hrs by broth dilution method; type: functional
[20] = system: Saccharomyces cerevisiae; assay: Antifungal activity against Saccharomyces cerevisiae IFO 0304 assessed as inhibition of fungal growth incubated for 72 hrs by broth dilution method; type: functional
[21] = system: Pichia kudriavzevii; assay: Antifungal activity against Pichia kudriavzevii IFO 0590 assessed as inhibition of fungal growth incubated for 72 hrs by broth dilution method; type: functional
[22] = system: L5178Y; assay: Cytotoxicity against mouse L5178Y cells; type: functional
[23] = system: Aspergillus japonicus; assay: Antifungal activity against Aspergillus japonicus IAM 2016 assessed as inhibition of fungal growth incubated for 72 hrs by broth dilution method; type: functional
[24] = system: L5178Y; assay: Cytotoxicity against mouse L5178Y; type: toxicity, cell-based
[25] = Toxicity in CDF1 mouse allografted with mouse […] cells assessed as lethal dose administered for 6 days ,ip; type: cell-based; conditions: in vivo, time 6 day
[26] = system: Penicillium chrysogenum; assay: Antifungal activity against Penicillium chrysogenum1AM 7106 assessed as inhibition of fungal growth incubated for 72 hrs by broth dilution method; type: functional; conditions: 1AM 7106
[27] = system: Rhizomucor pusillus; assay: Antifungal activity against Rhizomucor pusillus IAM 6122 assessed as inhibition of fungal growth incubated for 72 hrs by broth dilution method; type: functional
[28] = system: K562; assay: Cytotoxicity against human K562 cells incubated for 24 hrs by CCK-8 assay; type: functional, cell-based; conditions: K562, 24 h
[29] = system: A549; assay: Cytotoxicity against human A549 cells incubated for 72 hrs by MTT assay; type: functional, cell-based; conditions: A549, 72 h
[30] = system: HT-29; assay: Antitumor activity against human HT29 cells; type: functional, cell-based
[31] = system: B16; assay: Antitumor activity against mouse B-16 cells; type: functional, cell-based
[32] = system: HCT-116; assay: Antitumor activity against human HCT116 cells; type: functional, cell-based
[33] = system: U-937; assay: Antitumor activity against human U937 cells; type: functional, cell-based
[34] = system: HeLa; assay: Antitumor activity against human HeLa cells; type: functional, cell-based
[35] = system: THP-1; assay: Antitumor activity against human THP1 cells; type: functional, cell-based
[36] = system: HL-60; assay: Antitumor activity against human HL60 cells; type: functional, cell-based
[37] = Cytotoxicity against human HaCaT cells; type: toxicity, cell-based
[38] = Cytotoxicity against mouse C2C12 cells incubated for 48 to 72 hrs by MTS assay; type: toxicity, cell-based
[39] = Cytotoxicity against human HaCaT cells incubated for 48 to 72 hrs by MTS assay; type: toxicity, cell-based
[40] = Cytotoxicity against human HAF cells incubated for 48 to 72 hrs by MTS assay; type: toxicity, cell-based, Fibroblast; conditions: HAF cells (fibroblasts)
[41] = Inhibition of NO production in LPS stimulated mouse BV-2 cells measured after 24 hrs; type: functional, cell-based; conditions: BV-2, 24 h
[42] = Cytotoxicity against mouse C2C12 cells; type: toxicity, cell-based
[43] = system: PLC; assay: Antitumor activity against human PLC cells incubated for 72 hrs by hemocytometer; type: functional, cell-based
[44] = system: HeLa; assay: Antitumor activity against human HeLa cells incubated for 72 hrs by hemocytometer; type: functional, cell-based
[45] = Cytotoxicity against human HAF cells; type: toxicity, cell-based, Fibroblast; conditions: HAF cells (fibroblasts)
[46] = system: PANC-1; assay: Antitumor activity against human PANC-1; type: functional, cell-based; conditions: pooled result: one value given for 3 cell lines, strains, targets or settings
[47] = system: BV-2; assay: Cytotoxicity against LPS stimulated mouse BV-2 cells by MTS assay; type: functional, cell-based

Question: For `CO[C@H]1/C=C/C=C/C=C/C[C@H](OC(=O)[C@@H](C)NC(=O)C2CCCCC2)[C@H](C)[C@@H](O[C@@H]2O[C@H](CO)[C@@H](O)[C@H](O)[C@H]2O)/C(C)=C\CCc2cc(O)cc(c2O)NC(=O)C1`, which IC50 [1] is on record?
Answer: ≥ 2020 nM

Question: And the IC50 [2]?
Answer: ≥ 2020 nM

Question: What about the IC50 [3] of the same compound?
Answer: 4.38 µM

Question: And the IC50 [4]?
Answer: ≥ 2020 nM

Question: What about the IC50 [5] of the same compound?
Answer: 2200 nM

Question: For `CO[C@H]1/C=C/C=C/C=C/C[C@H](OC(=O)C2(NC(=O)C3CCCCC3)CC2)[C@H](C)[C@@H](O)/C(C)=C\CCc2cc(O)cc(c2O)NC(=O)C1`, which IC50 [6] is on record?
Answer: 7.7 nM

Question: And the EC50 [7]?
Answer: 7.7 µM

Question: What about the IC50 at 1 day [8] of the same compound?
Answer: 7.7 nM

Question: For `CO[C@H]1/C=C/C=C/C=C/C[C@H](O)[C@H](C)[C@@H](OC(=O)[C@@H](C)NC(=O)C(C)C)/C(C)=C\CCc2cc(O)cc(c2)NC(=O)C1`, which IC50 [9] is on record?
Answer: > 10 µM

Question: And the IC50 [10]?
Answer: > 10 µM

Question: What about the IC50 [11] of the same compound?
Answer: > 10 µM

Question: And the IC50 [12]?
Answer: > 10 µM

Question: And the IC50 [13]?
Answer: > 10 µM

Question: For `C/C=C(\C)C(=O)N[C@H](C)C(=O)O[C@H]1C/C=C/C=C/C=C/[C@H](OC)CC(=O)Nc2cc(O)cc(c2O)CC/C=C(/C)[C@H](O)[C@H]1C`, which IC50 [14] is on record?
Answer: 0.6 µg/mL (≈ 0.982 µM)

Question: With `CO[C@H]1/C=C/C=C/C=C/C[C@H](O)[C@H](C)[C@@H](O)/C(C)=C\CCc2cc(O)cc(c2)NC(=O)C1` as the compound, how does the IC50 [15] read?
Answer: > 10 µM

Question: What about the IC50 [16] of the same compound?
Answer: > 10 µM

Question: And the IC50 [17]?
Answer: > 10 µM

Question: Which MIC [18] does the source give for `CO[C@H]1/C=C/C=C/C=C/C[C@H](OC(=O)[C@@H](C)NC(=O)C2CCCCC2)[C@H](C)[C@@H](O)/C(C)=C\CCC2=CC(=O)C=C(NC(=O)C1)C2=O` here?
Answer: 4 µg/mL (≈ 6.28 µM)

Question: And the MIC [19]?
Answer: 4 µg/mL (≈ 6.28 µM)

Question: And the MIC [20]?
Answer: 4 µg/mL (≈ 6.28 µM)

Question: And the MIC [21]?
Answer: 4 µg/mL (≈ 6.28 µM)

Question: And the MIC [22]?
Answer: 0.11 µg/mL (≈ 0.173 µM)

Question: What about the MIC [23] of the same compound?
Answer: 4 µg/mL (≈ 6.28 µM)

Question: What about the MIC [24] of the same compound?
Answer: 1.25 µM (≈ 0.796 µg/mL)

Question: What about the LD50 at 144 h [25] of the same compound?
Answer: 56 mg/kg

Question: What about the MIC [26] of the same compound?
Answer: 4 µg/mL (≈ 6.28 µM)

Question: What about the MIC [27] of the same compound?
Answer: 4 µg/mL (≈ 6.28 µM)

Question: Which IC50 [15] does the source give for `CO[C@H]1/C=C/C=C/C=C/C[C@H](OC(=O)[C@@H](C)NC(C)=O)[C@H](C)[C@@H](O)/C(C)=C\CCc2cc(O)cc(c2)NC(=O)C1` here?
Answer: > 10 µM

Question: And the IC50 [16]?
Answer: > 10 µM

Question: What about the IC50 [28] of the same compound?
Answer: 23 µM

Question: What about the IC50 [29] of the same compound?
Answer: 15 µM

Question: What about the IC50 [17] of the same compound?
Answer: > 10 µM

Question: With `CO[C@H]1/C=C/C=C/C=C/C[C@H](OC(=O)C2(NC(=O)C3=CCCCC3)CC2)[C@H](C)[C@@H](O)/C(C)=C\CCc2cc3c(c(c2O)NC(=O)C1)SCC(=O)N3` as the compound, how does the IC50 [30] read?
Answer: 50 nM

Question: What about the IC50 [31] of the same compound?
Answer: 50 nM

Question: What about the IC50 [32] of the same compound?
Answer: 50 nM

Question: What about the IC50 [33] of the same compound?
Answer: 50 nM

Question: What about the IC50 [34] of the same compound?
Answer: 50 nM

Question: And the IC50 [35]?
Answer: 50 nM

Question: And the IC50 [36]?
Answer: 50 nM

Question: What does the source list for `CO[C@H]1/C=C/C=C/C=C/C[C@H](OC(=O)[C@@H](C)NC(=O)C2CCCCC2)[C@H](C)[C@@H](O)/C(C)=C\CCc2cc(O)cc(c2O)NC(=O)C1`?
Answer: MIC [18]: 4 µg/mL (≈ 6.26 µM); MIC [19]: 4 µg/mL (≈ 6.26 µM); MIC [20]: 4 µg/mL (≈ 6.26 µM); MIC [21]: 4 µg/mL (≈ 6.26 µM); MIC [22]: 0.11 µg/mL (≈ 0.172 µM); MIC [23]: 4 µg/mL (≈ 6.26 µM); LD50 at 144 h [25]: 80 mg/kg; MIC [26]: 4 µg/mL (≈ 6.26 µM); MIC [27]: 4 µg/mL (≈ 6.26 µM)

Question: What does the source list for `CO[C@H]1/C=C/C=C/C=C/C[C@H](OC(=O)[C@@H](C)NC(=O)C2CCCCC2)[C@H](C)[C@@H](O)/C(C)=C\CCc2cc(O)cc(c2)NC(=O)C1` [TRIENOMYCIN A]?
Answer: IC50 [37]: 8 nM; IC50 [38]: > 10 µM; IC50 [39]: > 10 µM; IC50 [40]: > 10 µM; EC50 [41]: 25.4 nM; IC50 [42]: 8 nM; IC50 [43]: 8 nM; IC50 [44]: 8 nM; IC50 [45]: 8 nM; IC50 [46]: 8 nM; IC50 [47]: 8 nM
